According to US7408065B2, “P2X7 receptor antagonists and their use” (AstraZeneca AB, priority 2003, dated 2008):

Legend:
P2X7 receptor = target: T1, P2X7 receptor (Homo sapiens, UniProt Q99572); assay: P2X7 receptor antagonist activity: bbATP-induced ethidium bromide fluorescence in THP-1 cells; type: cell-based; conditions: THP-1 cells; negative logarithm of concentration reducing bbATP agonist activity by 50%; ethidium bromide fluorescence; 37° C., one hour; read-out: pIC50 (converted)
T1 construct: 200 μl of a suspension of THP-1 cells; endogenous in cells; host or cells: THP-1 cells
T1 sequence (Q99572 1-595): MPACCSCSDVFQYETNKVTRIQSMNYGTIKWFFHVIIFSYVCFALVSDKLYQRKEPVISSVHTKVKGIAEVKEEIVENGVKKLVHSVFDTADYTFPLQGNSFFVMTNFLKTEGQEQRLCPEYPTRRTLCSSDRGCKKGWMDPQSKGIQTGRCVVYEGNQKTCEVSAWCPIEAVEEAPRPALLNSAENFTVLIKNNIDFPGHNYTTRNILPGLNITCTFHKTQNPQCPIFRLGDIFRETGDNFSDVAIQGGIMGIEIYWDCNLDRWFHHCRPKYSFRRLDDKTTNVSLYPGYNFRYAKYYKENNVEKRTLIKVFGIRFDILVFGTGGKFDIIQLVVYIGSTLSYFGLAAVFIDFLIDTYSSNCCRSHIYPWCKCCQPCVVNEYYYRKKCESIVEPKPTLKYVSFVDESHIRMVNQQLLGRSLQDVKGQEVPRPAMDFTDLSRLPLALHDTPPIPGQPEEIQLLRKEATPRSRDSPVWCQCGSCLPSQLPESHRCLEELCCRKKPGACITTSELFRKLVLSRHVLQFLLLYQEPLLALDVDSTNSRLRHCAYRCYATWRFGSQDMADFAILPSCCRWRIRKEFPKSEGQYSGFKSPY
Description: Consequently, when the receptor is activated using bbATP in the presence of ethidium bromide (a fluorescent DNA probe), an increase in the fluorescence of intracellular DNA-bound ethidium bromide is observed. The increase in fluorescence can be used as a measure of P2X7 receptor activation and therefore to quantify the effect of a compound on the P2X7 receptor.
In this manner, each of the title compounds of the Examples was tested for antagonist activity at the P2X7 receptor. Thus, the test was performed in 96-well flat bottomed microtitre plates, the wells being filled with 250 μl of test solution comprising 200 μl of a suspension of THP-1 cells (2.5×10^6 cells/ml) containing 10^−4M ethidium bromide, 25 μl of a high potassium buffer solution containing 10^−5M bbATP, and 25 μl of the high potassium buffer solution containing 3×10^−5M test compound. The plate was covered with a plastics sheet and incubated at 37° C. for one hour. […] For the purposes of comparison, bbATP (a P2X7 receptor agonist) and pyridoxal 5-phosphate (a P2X7 receptor antagonist) were used separately in the test as controls.

Q: What does the source list for O=C(CC1CCCCC1)Nc1c(Cl)ccc2nc(N3CC[C@@H](O)C3)ccc12 [Example 28, N-[6-Chloro-2-[(3R)-3-hydroxy-1-pyrrolidinyl]-5-quinolinyl]-cyclohexaneacetamide]?
A: IC50 (P2X7 receptor): 39.8 nM; melting point: 226 to 227 °C
